Test results from patent US6589963B2, “Heterocyclic compounds and salts thereof and medicinal use of the same” (Kyoto Pharmaceutical Industries, Ltd., priority 1999, dated 2003).

What was measured:
male KK-A^y mice [1] = assay: Hypotriglyceridemic action; assay type: in vivo, mouse; settings: 4 consecutive days, non-fasting, about 24 hours after final administration, vs control group
Experimental: (§1) The triglyceride level in the plasma was measured using a commercially available assay kit (triglyceride G-test WAKO, Wako Pure Chemical Industries, Ltd.). The mice were grouped (5 mice per group) into a control group and an administration group, such that the mean and the standard deviation of the triglyceride level in the plasma of each group were nearly the same. Each test compound was suspended or dissolved in 5% gum arabic solution and administered orally to the administration group for 4 consecutive days from the next day. The 5% gum arabic solution was orally administered to the control group. Blood was drawn from the tail vein under a non-fasting state about 24 hours after the final administration and the triglyceride level in the plasma was measured. The decrease in the plasma triglyceride level was calculated from the following formula.
Decrease (%) in plasma triglyceride level=[(mean plasma triglyceride level of control group−mean plasma triglyceride level of test compound administration group)/mean plasma triglyceride level of control group]×100

3T3-L1 cells = assay: Triglyceride accumulation promoting action in 3T3-L1 cells; assay type: cell-based; settings: 10^−7 M test compound with 10 ng/ml insulin, 4 days; relative to control
Experimental: A culture medium of 80% confluent 3T3-L1 cells was removed and the cells were dissociated with 0.25% trypsin-EDTA solution. 5% FBS-DMEM (the same amount as the removed medium) was added and the obtained cell suspension was centrifuged at 25° C., 100×g for 1 min to give cell sediment and the supernatant was removed. The cells were re-suspended in a suitable amount of 5% FBS-DMEM medium and the cells were counted. 5% FBS-DMEM medium was added to adjust the concentration to 1×10^5 cells/ml and the mixture was dispensed by 1 ml to a 24 well plate. The cells were cultured with aeration of 5% CO2 at 37° C. for 2 days. Upon confirmation of a post-confluent state, the culture supernatant was changed to a medium containing 0.5 mM-IBMX, and the cells were cultured for 2 days. Then, the medium was changed to a medium containing 10 ng/ml insulin and 10^−7 M test compound and the cells were cultured further for 4 days. After removing the culture supernatant, the cells were lysed in a 0.1% SDS solution and the triglyceride amount was measured. The triglyceride accumulation (%) due to the potentiation of insulin activity by the test compound was calculated from the following formula.
[(triglyceride amount with addition of test compound−triglyceride amount of control)/triglyceride amount of control]×100

male KK-A^y mice [2] = assay: Hypoglycemic action (method A); assay type: in vivo, mouse; settings: 4 consecutive days, non-fasting, about 24 hours after final administration, vs control group
Experimental: as §1, with “glucose” for “triglyceride”, “(glucose CII-test” for “(triglyceride G-test”
Decrease (%) in plasma glucose level=[(mean plasma glucose level of control group−mean plasma glucose level of test compound administration group)/mean plasma glucose level of control group]×100

male KK-A^y mice [3] = assay: Hypoglycemic action and hypoinsulinemic action in insulin resistant diabetic mouse; assay type: in vivo; settings: 10 mg/kg orally once a day for 4 days, 24 hours after final administration, non-fasting; for Plasma glucose: control 507; for Insulin: plasma, control 43
Experimental: Blood was drawn from the tail vein of 12-week-old male KK-A^y mice under a non-fasting state, and the glucose level in the plasma was measured using a commercially available assay kit (glucose CII-test WAKO, Wako Pure Chemical Industries, Ltd.). The mice were grouped (5 mice per group) into a control group and an administration group, such that the mean glucose level in the plasma and the average body weight of each group, as well as the standard deviation thereof were nearly the same. The test compound (10 mg/kg) was suspended in 5% aqueous gum arabic solution and orally administered once a day to the administration group for 4 days from the next day. The 5% aqueous gum arabic solution was orally administered to the control group. Blood was drawn from the tail vein under a non-fasting state 24 hours after the final administration. The concentrations of plasma glucose and plasma insulin were measured.

Row | SMILES | Decrease (%) in plasma triglyceride level (male KK-A^y mice [1]; dose 30 mg/kg orally) [%] | Triglyceride accumulation (%) (3T3-L1 cells) | Decrease (%) in plasma glucose level (male KK-A^y mice [2]; dose 10 mg/kg orally) [%] | Decrease (%) in plasma glucose level (male KK-A^y mice [2]; dose 30 mg/kg orally) [%] | Plasma glucose (male KK-A^y mice [3]) [mg/dL] | Insulin (male KK-A^y mice [3]) [ng/mL] | Decrease (%) in plasma triglyceride level (male KK-A^y mice [1]; dose 10 mg/kg orally) [%]
1 | CCCCCC(=O)N1Cc2cc(OCCc3nc(-c4ccccc4)oc3C)ccc2C[C@H]1C(=O)O [Example 5, 2-Hexanoyl-7-[2-(5-methyl-2-phenyloxazol-4-yl)ethoxy]-1,2,3,4-tetrahydroisoquinoline-(3S)-carboxylic acid] | 30.9 | 233.0 | 34.1 | 43.4 | – | – | –
2 | Cc1oc(-c2ccccc2)nc1CCOc1ccc2c(c1)CN(CC1CCCCC1)[C@H](C(=O)O)C2 [Example 8, 2-Cyclohexylmethyl-7-[2-(5-methyl-2-phenyloxazol-4-yl)ethoxy]-1,2,3,4-tetrahydroisoquinoline-(3S)-carboxylic acid] | – | 275.5 | – | – | – | – | –
3 | COc1ccc(CN2Cc3cc(OCCc4nc(-c5ccccc5)oc4C)ccc3C[C@H]2C(=O)O)cc1 [Example 16, 2-(4-Methoxybenzyl)-7-[2-(5-methyl-2-phenyloxazol-4-yl)ethoxy]-1,2,3,4-tetrahydroisoquinoline-(3S)-carboxylic acid] | 19.8 | 288.9 | – | 34.5 | – | – | –
4 | Cc1oc(-c2ccccc2)nc1CCOc1ccc2c(c1)CN(Cc1ccc(F)cc1)[C@H](C(=O)O)C2 [Example 21, 2-(4-Fluorobenzyl)-7-[2-(5-methyl-2-phenyloxazol-4-yl)ethoxy]-1,2,3,4-tetrahydroisoquinoline-(3S)-carboxylic acid] | 24.4 | 284.9 | – | 43.4 | – | – | –
5 | Cc1oc(-c2ccccc2)nc1CCOc1ccc2c(c1)CN(CC(C)(C)C)[C@H](C(=O)O)C2 [Example 23, 2-(2,2-Dimethylpropyl)-7-[2-(5-methyl-2-phenyloxazol-4-yl)ethoxy]-1,2,3,4-tetrahydroisoquinoline-(3S.)-carboxylic acid] | 50.4 | 214.2 | 24.3 | 42.9 | 382 | 28 | 30.4
6 | Cc1oc(C(C)(C)C)nc1CCOc1ccc2c(c1)CN(Cc1ccccc1)[C@H](C(=O)O)C2 [Example 32, 2-Benzyl-7-[2-(5-methyl-2-tert-butyloxazol-4-yl)ethoxy]-1,2,3,4-tetrahydroisoquinoline-(3S)-carboxylic acid] | 32.5 | 181.2 | – | 36.4 | 402 | 30 | –
7 | Cc1oc(-c2cccs2)nc1CCOc1ccc2c(c1)CN(Cc1ccccc1)[C@H](C(=O)O)C2 [Example 33, 2-Benzyl-7-[2-(5-methyl-2-(thiophen-2-yl)oxazol-4-yl)ethoxy]-1,2,3,4-tetrahydroisoquinoline-(3S)-carboxylic acid] | 42.0 | 222.5 | – | 38.8 | – | – | –
8 | C=CCCc1nc(CCOc2ccc3c(c2)CN(Cc2ccccc2)[C@H](C(=O)O)C3)c(C)o1 [Example 37] | – | 277.3 | – | 11.1 | – | – | –
9 | C#CCN1Cc2cc(OCCc3nc(-c4ccccc4)oc3C)ccc2C[C@H]1C(=O)O [Example 39, 7-[2-(5-Methyl-2-phenyloxazol-4-yl)ethoxy]-2-(2-propynyl)-1,2,3,4-tetrahydroisoquinoline-(3S)-carboxylic acid] | 15.6 | 258.0 | – | 30.7 | – | – | –
10 | CC=CCN1Cc2cc(OCCc3nc(-c4ccccc4)oc3C)ccc2C[C@H]1C(=O)O [Example 40] | 36.1 | 231.0 | – | 46.3 | – | – | –
11 | C=CCCN1Cc2cc(OCCc3nc(-c4ccccc4)oc3C)ccc2C[C@H]1C(=O)O [Example 42, 2-(3-Butenyl)-7-[2-(5-methyl-2-phenyloxazol-4-yl)ethoxy]-1,2,3,4-tetrahydroisoquinoline-(3S)-carboxylic acid] | 31.6 | 193.6 | 27.6 | 49.6 | 308 | 27 | –
12 | CC(C)(CCOc1ccc2c(c1)CN(Cc1ccccc1)[C@H](C(=O)O)C2)c1ccccc1 [Example 49, 2-Benzyl-7-(3-methyl-3-phenylbutoxy)-1,2,3,4-tetrahydroisoquinoline-(3S)-carboxylic acid] | 17.0 | – | – | 11.1 | – | – | –
13 | CC(C)(CCOc1ccc2c(c1)CN(Cc1ccccc1)[C@H](C(=O)O)C2)Cc1ccccc1 [Example 50, 2-Benzyl-7-(3,3-dimethyl-4-phenylbutoxy)-1,2,3,4-tetrahydroisoquinoline-(3S)-carboxylic acid] | 35.7 | – | – | 11.4 | – | – | –
14 | CC(C)c1nc2ccc(COc3ccc4c(c3)CN(Cc3ccccc3)[C@H](C(=O)O)C4)cc2o1 [Example 51, 2-Benzyl-7-(2-isopropylbenzoxazol-6-yl)methoxy-1,2,3,4-tetrahydroisoquinoline-(3S)-carboxylic acid] | 10.7 | – | – | 20.0 | – | – | –
15 | CC(C)(C)c1nc2ccc(COc3ccc4c(c3)CN(Cc3ccccc3)[C@H](C(=O)O)C4)cc2o1 [Example 52, 2-Benzyl-7-(2-tert-butylbenzoxazol-6-yl)methoxy-1,2,3,4-tetrahydroisoquinoline-(3S)-carboxylic acid] | 26.6 | – | – | 26.3 | – | – | –
16 | COC(=O)[C@@H]1Cc2ccc(OCCc3nc(-c4ccccc4)oc3C)cc2CN1Cc1ccccc1 [Example 58, Methyl 2-benzyl-7-[2-(5-methyl-2-phenyloxazol-4-yl)ethoxy]-1,2,3,4-tetrahydroisoquinoline-(3S)-carboxylate] | 24.7 | – | – | 19.1 | – | – | –
17 | CCC=Cc1nc(CCOc2ccc3c(c2)CN(Cc2ccccc2)[C@H](C(=O)O)C3)c(C)o1 [Example 62, 2-Benzyl-7-{2-[2-(1-butenyl)-5-methyloxazol-4-yl]ethoxy}-1,2,3,4-tetrahydroisoguinoline-(3S)-carboxylic acid] | – | 327.8 | – | – | – | – | –
18 | Cc1oc(-c2ccccc2)nc1CCOc1ccc2c(c1)CN(CC(=O)O)[C@H](C(=O)O)C2 [Example 69, 2-Carboxymethyl-7-[2-(5-methyl-2-phenyloxazol-4-yl)ethoxy]-1,2,3,4-tetrahydroisoquinoline-(3S)-carboxylic acid] | 15.2 | – | – | 12.5 | – | – | –
19 | CC(=O)c1cccc(CN2Cc3cc(OCCc4nc(-c5ccccc5)oc4C)ccc3C[C@H]2C(=O)O)c1 [Example 73, 2-(3-Acetylbenzyl)-7-[2-(5-methyl-2-phenyloxazol-4-yl)ethoxy]-1,2,3,4-tetrahydroisoquinoline-(3S)-carboxylic acid] | 15.4 | – | – | 14.8 | – | – | –
